From US8236756B2, “Prodrugs cleavable by CD26” (Consejo Superior de Investigaciones Clentificas (CSIC), priority 2003, dated 2012)

Biological target: T1, purified CD26 (Homo sapiens, UniProt P27487)
T1 construct: made in house
Test: Conversion of peptide prodrugs to parent compound by purified CD26 (HPLC)
Type: biochemical
Conditions: for Conversion % to parent compound by purified CD26, 1 h / Conversion % to parent compound by purified CD26, 4 h / Conversion % to parent compound by purified CD26, 24 h: Table 1
Procedure: To reveal whether CD26 recognizes such synthetic di/tripeptide derivatives of lipophilic nucleoside analogues as a substrate, 50 μM CAM-405 or CAM-431 was exposed to 5.7 mUnits of purified CD26, and the conversion of CAM-405 or CAM-431 to respectively CAM-212 or CAM-403 (Val-NAP-TSAO) was recorded in function of incubation time by HPLC analysis. […] Within the first 10 min of the reaction, at least 20% of CAM-405 had been converted to CAM-212, fifty percent of the TSAO dipeptide derivative was converted to CAM-212 within 30 min of the reaction and ˜67% of CAM-405 was hydrolyse after 60 min. Thus, the reaction rate started already to slow down after the first 10 min of drug exposure (FIG. 2). Most likely, the release of the reaction product Val-Pro dose-dependently feed-back inhibited the CD26-catalysed dipeptidyl-peptidase reaction. […] Thus, in the presence of 50 μM CAM-405, hydrolysis of 50% of CAM-405 to CAM-212 results in the appearance of 25 μM Val-Pro, that is a concentration that (feed-back) inhibits the CD26 reaction by ˜50%. These findings explain why the CD26-catalysed reaction levels-off shortly after the start of the exposure of the drug to CD26. […] Thus, a further level of modulation of the rate of prodrug release can be introduced by choosing a dipeptide moiety that competes for the active site of CD26, until the dipeptide has diffused from the tissue wherein CD26 is present. The inhibitory activity of any dipeptide can be evaluated by the above mentioned assay.
The conversion rate in function of time is given in Table 1 for NAP-TSAO-dipeptides where the dipeptide consists of: Val-Pro, Val-D-Pro, Asp-Pro, Lys-Pro, Tyr-Pro, Gly-Pro, Val-4-hydroxyPro, Gly-3,4-dihydroxyPro, but also Val-Gly, Val-Ala, Val-Leu and Val-Phe. It is clear that the conversion rate to the parent NAP-TSAO differs depending the nature of the dipeptide. Also, when the terminal amine of the dipeptide has been blocked by a lipophilic group (i.e. methyl, Z or Fmoc), the prodrug looses measurable substrate activity for CD26.
The conversion rate in function of time is given in Table 2 for tetrapeptide NAP-TSAO compounds where the tetrapeptide consists of: Val-Pro-Val-Pro [SEQ ID no:6] (CAM 467), Val-Ala-Val-Pro [SEQ ID no:7] (CAM 473) or Lys-Pro-Asp-Pro [SEQ ID no:8] (CAM 477). […] Only traces of dipeptide prodrug (CAM 405) is seen as intermediate in the conversion of the tetrapeptide CAM 473 to NAP-TSAO.
All enzyme activity assays were performed in Eppendorf tubes on a heating block at 37° C. To each tube were added 32 μl CD26 (at a final concentration of 1.5 milliUnits) or 10 μl foetal bovine serum (BS) (final concentration: 2.5% BS in PBS; preheated at 56° C. for 30 min) or 10 μl human serum (HS) (final concentration: 2.5% HS in PBS), 40 μl of appropriate concentrations of inhibitor (Diprotin A) solution in PBS (for the exact concentrations, see the legend to FIG. 5), CAM-405 (the substrate of the reaction) at […] (final concentration) and PBS to reach a total volume of 400 μl. The pH of the reaction mixture was 7.5, which is virtually identical to the physiological pH of plasma. The reaction was started by the addition of the enzyme or serum and carried out at 37° C. After 5 hr, 100 μl reaction mixture was taken from the Eppendorf tube and added to 200 μl cold methanol to precipitate the proteins. After 10 min standing on ice, the contents of the tubes were centrifuged and the supernatants analysed by HPLC on a reverse phase column (RP-8, Merck Laboratories). CAM-405 was separated from CAM-212 (the product of the reaction) by a gradient of 50 mM sodium phosphate+5 mM heptane sulfonic acid pH 3.2 (Buffer A) and acetonitrile (Buffer B) as follows: Buffer A: 98%+2% Buffer B, 2 min; linear gradient to 20% Buffer. […]

[1] = Table 2, purified CD26 1.5 mUnits, 4 h
[2] = Table 2, purified CD26 1.5 mUnits, 24 h
[3] = Table 2, purified CD26 1.5 mUnits, 1 h
[4] = Table 5, purified CD26 1.5 mUnits, 1 h
[5] = Table 5, purified CD26 1.5 mUnits, 4 h
[6] = Table 5, purified CD26 1.5 mUnits, 24 h

T1 sequence (P27487 whole entry): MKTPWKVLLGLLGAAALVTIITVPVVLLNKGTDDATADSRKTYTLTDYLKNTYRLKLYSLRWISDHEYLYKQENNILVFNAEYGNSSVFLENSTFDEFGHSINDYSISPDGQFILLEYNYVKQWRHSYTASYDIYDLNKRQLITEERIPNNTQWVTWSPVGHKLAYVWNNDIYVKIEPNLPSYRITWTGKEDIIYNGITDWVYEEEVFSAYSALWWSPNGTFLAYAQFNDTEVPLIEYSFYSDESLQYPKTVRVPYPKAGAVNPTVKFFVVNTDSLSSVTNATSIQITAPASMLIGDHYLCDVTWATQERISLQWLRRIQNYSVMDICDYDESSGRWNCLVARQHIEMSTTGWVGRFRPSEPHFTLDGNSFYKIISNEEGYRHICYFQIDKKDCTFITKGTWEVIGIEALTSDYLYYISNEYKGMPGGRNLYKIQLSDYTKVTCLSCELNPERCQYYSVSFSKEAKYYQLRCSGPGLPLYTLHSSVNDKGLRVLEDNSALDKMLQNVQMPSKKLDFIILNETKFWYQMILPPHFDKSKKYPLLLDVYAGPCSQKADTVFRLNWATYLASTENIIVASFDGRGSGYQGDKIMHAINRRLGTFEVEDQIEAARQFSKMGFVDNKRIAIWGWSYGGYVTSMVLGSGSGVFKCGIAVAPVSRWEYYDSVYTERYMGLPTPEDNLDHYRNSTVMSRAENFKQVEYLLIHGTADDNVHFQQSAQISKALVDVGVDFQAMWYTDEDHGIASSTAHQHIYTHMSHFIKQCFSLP

Row | Conversion % to parent compound by purified CD26, 1 h (purified CD26 1.5 mUnits, 1 h) [%] | Conversion % to parent compound by purified CD26, 4 h (purified CD26 1.5 mUnits, 4 h) [%] | Conversion % to parent compound by purified CD26, 24 h (purified CD26 1.5 mUnits, 24 h) [%] | % conversion to parent compound by purified CD26, 4 h [1] [%] | % conversion to parent compound by purified CD26, 24 h [2] [%] | Conversion / substrate activity with purified CD26, in words | Compound | also measured
1 | – | 85 | 99 | 85 | 99 | completely removed | Cc1cn(C2OC(CO[Si](C)(C)C(C)(C)C)C3(OS(=O)(=O)C=C3N)C2O[Si](C)(C)C(C)(C)C)c(=O)n(CCCNC(=O)[C@@H]2CCCN2C(=O)[C@@H](N)CCCCN)c1=O (stereo partly drawn) [CAM-437, H-Lys-Pro-NAP-TSAO] | –
2 | 5 | 20 | 58 | – | – | – | Cc1cn(C2OC(CO[Si](C)(C)C(C)(C)C)C3(OS(=O)(=O)C=C3N)C2O[Si](C)(C)C(C)(C)C)c(=O)n(CCCNC(=O)[C@@H]2CCCN2C(=O)CN)c1=O (stereo partly drawn) [CAM-458, H-Gly-Pro-NAP-TSAO] | –
3 | – | 0 | 0 | – | – | – | NH2-Val-HyPro(Bzl)-NAP-TSAO [CAM-462] | –
4 | – | – | – | 0 | 0 | – | Cc1cn(C2OC(CO[Si](C)(C)C(C)(C)C)C3(OS(=O)(=O)C=C3N)C2O[Si](C)(C)C(C)(C)C)c(=O)n(CCCNC(=O)C2CCCN2C(=O)C(NC(=O)C2CCCN2C(=O)C(NC(=O)OCc2ccccc2)C(C)C)C(C)C)c1=O (stereo not drawn) [CAM-466, Z-Val-Pro-Val-Pro-NAP-TSAO] | % conversion to parent compound by purified CD26, 1 h [3]: 0%
5 | – | – | – | – | – | complete conversion within 1 hr | CC(C)[C@H](N)C(=O)N1CCC[C@H]1C(=O)Nc1ccc2ncccc2c1 [CAM-475, H-Val-Pro-6-Aminoquinoline] | % conversion to parent compound by purified CD26, 1 h [4]: 99%; % conversion to parent compound by purified CD26, 4 h [5]: 100%; % conversion to parent compound by purified CD26, 24 h [6]: 100%
6 | – | – | – | 86 | 88 | quickly converted | Cc1cn(C2OC(CO[Si](C)(C)C(C)(C)C)C3(OS(=O)(=O)C=C3N)C2O[Si](C)(C)C(C)(C)C)c(=O)n(CCCNC(=O)C2CCCN2C(=O)C(NC(=O)C2CCCN2C(=O)C(N)C(C)C)C(C)C)c1=O (stereo not drawn) [CAM-467, H-Val-Pro-Val-Pro-NAP-TSAO] | % conversion to parent compound by purified CD26, 1 h [3]: 43%
7 | – | 0 | 0 | – | – | – | H-Gly-3.4Hypro-NAP-TSAO [CAM-465] | –
8 | – | – | – | 6.0 | 26 | clearly occurs in two steps | Cc1cn(C2OC(CO[Si](C)(C)C(C)(C)C)C3(OS(=O)(=O)C=C3N)C2O[Si](C)(C)C(C)(C)C)c(=O)n(CCCNC(=O)C2CCCN2C(=O)C(CC(=O)O)NC(=O)C2CCCN2C(=O)C(N)CCCCN)c1=O (stereo not drawn) [CAM-477, H-Lys-Pro-Asp-Pro-NAP-TSAO] | % conversion to parent compound by purified CD26, 1 h [3]: 2.1%; % conversion to dipeptide intermediate by purified CD26, 1 h (Table 2 footnote a, purified CD26 1.5 mUnits, 1 h): 88%; % conversion to dipeptide intermediate by purified CD26, 4 h (Table 2 footnote a, purified CD26 1.5 mUnits, 4 h): 86%; % conversion to dipeptide intermediate by purified CD26, 24 h (Table 2 footnote a, purified CD26 1.5 mUnits, 24 h): 74%

The remaining lines, values behind:

Row | Compound | Conversion % to parent compound by purified CD26, 1 h (purified CD26 1.5 mUnits, 1 h) [%] | Conversion % to parent compound by purified CD26, 4 h (purified CD26 1.5 mUnits, 4 h) [%] | Conversion % to parent compound by purified CD26, 24 h (purified CD26 1.5 mUnits, 24 h) [%] | % conversion to parent compound by purified CD26, 4 h [1] [%] | % conversion to parent compound by purified CD26, 24 h [2] [%] | Conversion / substrate activity with purified CD26, in words | also measured
9 | Cc1cn(C2OC(CO[Si](C)(C)C(C)(C)C)C3(OS(=O)(=O)C=C3N)C2O[Si](C)(C)C(C)(C)C)c(=O)n(CCCNC(=O)[C@@H]2CCCN2C(=O)[C@@H](N)Cc2ccc(O)cc2)c1=O (stereo partly drawn) [CAM-456, H-Tyr-Pro-NAP-TSAO] | 43 | 66 | 79 | – | – | – | –
10 | Cc1cn(C2OC(CO[Si](C)(C)C(C)(C)C)C3(OS(=O)(=O)C=C3N)C2O[Si](C)(C)C(C)(C)C)c(=O)n(CCCNC(=O)C2CCCN2C(=O)C(NC(=O)C(C)NC(=O)C(N)C(C)C)C(C)C)c1=O (stereo not drawn) [CAM-473, H-Val-Ala-Val-Pro-NAP-TSAO] | – | – | – | 54 | 70 | occurs faster than with the Val-Ala-NAP-TSAO | % conversion to parent compound by purified CD26, 1 h [3]: 12%
11 | Cc1cn(C2OC(CO[Si](C)(C)C(C)(C)C)C3(OS(=O)(=O)C=C3N)C2O[Si](C)(C)C(C)(C)C)c(=O)n(CCCNC(=O)[C@@H](NC(=O)OCc2ccccc2)C(C)C)c1=O (stereo partly shown) [CAM-404, Z-Val-NAP-TSAO] | 0 | 0 | 0 | – | – | – | –
12 | COc1cccc2c1C(=O)c1c(O)c3c(c(O)c1C2=O)CC(O)(C(=O)CO)CC3OC1CC(NC(=O)C2CCCN2C(=O)C(N)C(C)C)C(O)C(C)O1 (stereo not drawn) [CAM-469, H-Val-Pro-Doxorubicin] | – | – | – | – | – | very efficiently converted | % conversion to parent compound by purified CD26, 1 h [4]: 78%; % conversion to parent compound by purified CD26, 4 h [5]: 95%; % conversion to parent compound by purified CD26, 24 h [6]: 97%
13 | Cc1cn(C2OC(CO[Si](C)(C)C(C)(C)C)C3(OS(=O)(=O)C=C3N)C2O[Si](C)(C)C(C)(C)C)c(=O)n(CCCNC(=O)[C@@H]2CC(O)CN2C(=O)[C@@H](N)C(C)C)c1=O (stereo partly shown) [CAM-163, H-Val-4HyPro-NAP-TSAO] | 4.1 | 18 | 53 | – | – | – | –
14 | H-Val-Pro-Val-NHP-TSAO [CAM-411] | 33 | 60 | – | – | – | – | –
15 | CNC(C(=O)N1CCCC1C(=O)NC(C(=O)NCCCn1c(=O)c(C)cn(C2OC(CO[Si](C)(C)C(C)(C)C)C3(OS(=O)(=O)C=C3N)C2O[Si](C)(C)C(C)(C)C)c1=O)C(C)C)C(C)C (stereo not drawn) [CAM-407, Me-NH-Val-Pro-Val-NHP-TSAO] | 0 | 0 | 0 | – | – | completely lacked substrate activity | –
16 | COc1cccc2c1C(=O)c1c(O)c3c(c(O)c1C2=O)CC(O)(C(=O)CO)CC3OC1CC(NC(=O)C2CCCN2C(=O)C(NC(=O)OCC2c3ccccc3-c3ccccc32)C(C)C)C(O)C(C)O1 (stereo not drawn) [CAM-468, Fmoc-Val-Pro-Doxorubicin] | – | – | – | – | – | no conversion | % conversion to parent compound by purified CD26, 1 h [4]: 0%; % conversion to parent compound by purified CD26, 4 h [5]: 0%; % conversion to parent compound by purified CD26, 24 h [6]: 0%
17 | Cc1cn(C2OC(CO[Si](C)(C)C(C)(C)C)C3(OS(=O)(=O)C=C3N)C2O[Si](C)(C)C(C)(C)C)c(=O)n(CCCNC(=O)[C@@H]2CCCN2C(=O)[C@@H](N)CC(=O)O)c1=O (stereo partly drawn) [CAM-435, H-Asp-Pro-NAP-TSAO] | – | 7.9 | 30 | 7.9 | 30 | – | –
